Source: paper PMC12118337, “Development of a Peptide Inhibitor Targeting the C‐SH2 Domain of the SHP2 Phosphatase” (Chembiochem, 2025)
Residues, ends and D or L forms follow the SMILES beside them. *: point of attachment. 5FAM = O=C1OC2(c3ccc(O)cc3Oc3cc(O)ccc32)c2ccc(C(=O)*)cc21; X1 = O=C(O)C(C(=O)O)*

Assays:
[1] = Peptide stability in Jurkat cell lysate (LC-MS); assay type: in vitro ADME; conditions: 200 µM peptide, WT Jurkat T cell lysate (RIPA buffer with protease inhibitor cocktail), 37 °C in the dark, 0, 6 or 24 h, peak area at 254 nm normalised to FAM (200 µM) internal control, three independent experiments
Experimental: 1. Cell culture and cell lines
Jurkat T cells were cultured in RPMI 1640 GlutaMAX (Thermo Fisher Scientific) supplemented with 10% heat-inactivated fetal bovine serum (FBS; Thermo Fisher Scientific), 100 U/mL penicillin (Sigma-Aldrich) and 100 µg/mL streptomycin (Sigma-Aldrich). HeLa cells were cultured in DMEM low glucose GlutaMAX (Thermo Fisher Scientific) supplemented with 10% fetal bovine serum (FBS; Thermo Fisher Scientific), 100 U/mL penicillin (Sigma-Aldrich) and 100 µg/mL streptomycin (Sigma-Aldrich).
Both cell lines tested negative for mycoplasma contamination.
2. Peptide stability in Jurkat cell lysate
The stability of FAM-labelled peptide 26 in WT Jurkat T cell lysate was evaluated by LC-MS. 106 Jurkat cells were washed with 1 mL PBS and lysed in 1 mL ice-cold RIPA buffer (25 mM Tris-HCl pH 7.5, 150 mM NaCl, 1% Nonidet P-40, 1% sodium deoxycholate, 0.1% SDS) containing cOmplete EDTA-free Protease Inhibitor Cocktail (Roche), on ice for 30 minutes vortexing every 10 minutes. Cell lysate was centrifuged at 20000 x g for 20 minutes at 4°C. […] The supernatant was collected on ice, filtered using a 13 mm syringe filter with a 0.2 µm PTFE membrane (Pall Life Sciences) and analysed by analytical HPLC-MS. The area under the peak at 254 nm corresponding to peptide 26 and FAM was determined. […]

[2] = system: WT Jurkat T cells; test: Peptide cellular uptake by confocal fluorescence microscopy, Jurkat; assay type: cell-based; conditions: confocal fluorescence microscopy via FAM group, live cells, 50 or 100 μM peptide, 2 or 5 h, 37 °C; three independent experiments
Experimental: Multiply charged ions were selected for higher collisional dissociation (HCD) using a normalized collision energy (NCE) of 28%, fragmentation targeting for the 12 most abundant precursor ions. Fragment ions were measured with a resolution of 35,000 with a scan range of 200-2,000 m/z and an AGC target of 1E5. A dynamic exclusion time of 45 s with a maximum ion time of 120 ms and an isolation window of 3 m/z was set. Mass spectrometric data evaluation was performed using MaxQuant 1.6.5.0,[5] searching against a homo sapiens UniProt sequence database (2021/02; 218,230 entries including isoforms) supplemented with the protein sequences of the respective peptide used for the experiment. […] The protein list was analysed with Perseus v2.0.11.[6] […] The data was further analysed with the R language package and identified proteins compared with the CRAPome database (H. sapiens single step epitope tag AP-MS background contaminant list) to mitigate the influence of background contaminants (Table S2).[7] […] The significance thresholds were set to alpha 0.01 and a calculated log2 protein ratio of 4. […]
6. Peptide cellular uptake by fluorescence microscopy
The cell permeability of FAM-labelled peptides in WT Jurkat T cells (peptide 26 and peptide 28) and WT HeLa cells (peptide 28) was visualised by fluorescence microscopy. […]

SMILES: CC[C@H](C)[C@H](NC(=O)[C@@H](NC(=O)[C@H](C)NC(=O)[C@H](Cc1ccc(OC(C(=O)O)C(=O)O)cc1)NC(=O)[C@H](CCC(=O)O)NC(=O)[C@@H](NC(=O)[C@H](CCC(N)=O)NC(=O)c1ccc2c(c1)C(=O)OC21c2ccc(O)cc2Oc2cc(O)ccc21)[C@@H](C)O)[C@@H](C)O)C(=O)N[C@@H](CCCCN)C(=O)N[C@@H](Cc1c[nH]cn1)C(=O)N1CCC[C@H]1C(N)=O [peptide 26] (5FAM-QTEY(X1)ATIKHP-NH2)
- stability in Jurkat T cell lysate [1]: stable
- cellular uptake in Jurkat cells [2]: no cell uptake
